Test results from article PMC12650265 (The Journal of Experimental Medicine, 2025).

Key:
[1] = test system: T1, human MR1–β2-microglobulin (β2m) complex; assay: refolding of recombinant MR1-β2m with ligand; assay type: binding; settings: ligand added to refolding buffer; gel filtration and SDS-PAGE
T1 construct: plasmids encoding for the extracellular domains of MR1, β2m, and the AF-7 TCRα and TCRβ chains; made in house

hMR1 protein = target: T2, hMR1 protein (Homo sapiens, UniProt Q95460); assay: fluorescence polarization–based cell-free assay, competition with JYM20 for MR1 binding; settings: 50% inhibition of 10 nM JYM20 binding to 100 nM empty hMR1, 37°C; three independent experiments in triplicate
T2 construct: plasmids encoding for the extracellular domains of MR1, β2m, and the AF-7 TCRα and TCRβ chains; made in house; host or cells: Escherichia coli BL21(DE3)

[2] = test system: T3, folded MR1 in C1R.MR1 cells; assay: intracellular total folded MR1 by flow cytometry (8F2.F9); assay type: cell-based, human; settings: 16 h, 100 µM
T3 construct: expressed in transfected cells; host or cells: C1R B lymphoblastoid cells transduced with MR1*01

soluble WT MR1 = assay: fluorescence-based thermal shift (thermostability) assay of MR1–ligand complexes; assay type: binding, human; settings: MR1 refolded with the ligand, SYPRO Orange, 28 to 95°C, three independent experiments
MAIT cells from PBMCs = assay: primary MAIT cell activation in PBMCs (CD69, TNF); assay type: cell-based, human; settings: 16-h incubation
[3] = test system: CD3^+ MR1-5-OP-RU tetramer^+ MAIT cells; assay: MAIT cell proliferation in CTV-labeled PBMCs; assay type: cell-based, human; settings: 7-day culture, 5-OP-RU 10 µM, others 100 µM
[4] = test system: T4, MR1^K43A on C1R.MR1^K43A cells; assay: cell surface MR1^K43A by flow cytometry; assay type: cell-based, human; settings: 3 h
T4 construct: expressed in transfected cells; host or cells: C1R cells overexpressing MR1^K43A
Excerpt: We then tested the effect of the RF catabolites on the expression of two mutant versions of MR1 termed MR1^R9H ([Howson et al., 2020]) and MR1^K43A ([Reantragoon et al., 2013]). First, we tested the MR1^R9H mutant ([Howson et al., 2020]), which represents a rare, natural human polymorph. […] We used C1R.MR1^R9H cells, which are produced by stable transduction of wild-type C1R cells, which express low levels of wild-type MR1, with a vector expressing the MR1^R9H mutant ([Howson et al., 2020]). […] When C1R. […] Next, we sought to understand how the previously characterized K43A mutation affects ligand binding.
The level of MR1 expressed on the cell surface was measured after the exposure to the investigated ligands as previously described ([Awad et al., 2020a]; [Wang et al., 2022a]). C1R Ag-presenting B lymphocytes overexpressing MR1*01 (C1R.MR1), MR1^K43A mutant (C1R.MR1^K43A), MR1^R9H mutant (C1R.MR1^R9H), or HLA-A*02:01 (C1R-A2), in addition to the monocytic THP-1-MR1 cells, were used in this study. 2 × 10^5 cells were incubated with RF catabolites for 3 or 16 h at 37°C and 5% CO2 in 200 μl folate-free RPMI 1640 medium from Gibco (Cat. No. 11875-093) fortified with 10% fetal bovine serum, sodium pyruvate (1 mmol/L), HEPES buffer (15 mmol/L), pH 7.2–7.5, 2% penicillin (100 U/ml), streptomycin ([…]), GlutaMAX (2 mmol/L), nonessential amino acids (0.1 mmol/L) (all from Thermo Fisher Scientific, Life Technologies), and 2-mercaptoethanol ([…], Sigma-Aldrich) (RF-10). After incubation, the cells were first stained with Zombie Aqua Fixable Viability Kit from BioLegend (Cat. No. 423102) and then incubated with biotinylated 8F2F9 αMR1 antibody for 30 min on ice. The unbound antibody was then washed off with 2% fetal bovine serum/PBS (called 2% FACS hereafter) buffer. The cells were finally incubated with PE-conjugated streptavidin (30 μg/ml; BioLegend) and then washed with 2% FACS buffer. The PE fluorescence intensity reflects the surface MR1 level. The data were acquired with LSRFortessa X-20 (BD Biosciences) and Diva software (BD Biosciences) and analyzed using FlowJo software (BD Biosciences).

[5] = test system: SKW-3 cells expressing MAIT TCR AF-7; assay: SKW-3 reporter T cell activation (CD69), coculture with C1R.MR1; assay type: cell-based
Procedure: (§1) Given the intracellular MR1 retention induced by the RF catabolites, we anticipated that these ligands could influence the activity of MR1-reactive T cells. First, we utilized a system whereby reporter SKW-3 T cell lines were cocultured with C1R.MR1 APCs and activation was determined by CD69 expression. […] In contrast, SKW-3-MBV28 cells were inhibited by alloxazine but activated by lumichrome (Fig. S3, D–F). Two MR1-restricted TRAV1-2^−ve SKW-3 T cell lines were also tested.
(§2) C1R.MR1 cells (1 × 10^5) were initially stained with CTV (Thermo Fisher Scientific) for 15 min and then incubated with RF catabolites for 20 h. […] Cells were subsequently stained with PE-Cy7-conjugated anti-CD69 (1:100; BD Biosciences) and PE-labeled anti-MR1 (1:100, clone 26.5; BD Biosciences), before analysis on a LSRFortessa (BD Biosciences) flow cytometer. Activation of the SKW-3 cells was reflected by the cell surface CD69 expression.

SKW-3-DGB129 line = assay: as above; assay type: cell-based; settings: SKW-3-DGB129 cocultured with C1R.MR1
Procedure: as §1, §2

SKW-3-MAV36 line = assay: as above; assay type: cell-based; settings: SKW-3-MAV36, in the presence of 5-OP-RU
Procedure: as §1, §2

[6] = test system: SKW-3 cells expressing MAIT TCR MBV28; assay: as above; assay type: cell-based; settings: SKW-3-MBV28, in the presence of 5-OP-RU
Procedure: as §1, §2

[7] = test system: T5, MR1 on PBMC-derived B lymphocytes; assay: MR1 surface expression on primary B cells; assay type: cell-based; settings: primary human B cells, 16 h, highest doses, with or without 5-OP-RU
T5 construct: we also measured MR1 on the surface of cells expressing wild-type levels of MR1; endogenous in cells; host or cells: PBMC-derived B lymphocytes from healthy human donors

[8] = test system: T6, surface MR1*01 on C1R.MR1 cells; assay: quantification of cell surface MR1 by flow cytometry, C1R.MR1 cells; assay type: cell-based, human; settings: C1R.MR1 cells, 3 h, 1–200 µM, 8F2F9 antibody
T6 construct: expressed in transfected cells; host or cells: C1R B lymphoblastoid cells transduced with MR1*01

T2 sequence (Q95460 23-302 limits assumed): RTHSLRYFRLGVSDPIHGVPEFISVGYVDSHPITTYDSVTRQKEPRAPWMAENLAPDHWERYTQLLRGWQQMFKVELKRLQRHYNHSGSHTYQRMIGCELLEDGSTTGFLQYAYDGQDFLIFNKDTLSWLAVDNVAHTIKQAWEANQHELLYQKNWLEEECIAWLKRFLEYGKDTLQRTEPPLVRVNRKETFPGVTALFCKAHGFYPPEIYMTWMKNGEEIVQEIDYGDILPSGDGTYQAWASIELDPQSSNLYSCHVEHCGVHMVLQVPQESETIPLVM
T2 sequence (P61769 21-119 partner): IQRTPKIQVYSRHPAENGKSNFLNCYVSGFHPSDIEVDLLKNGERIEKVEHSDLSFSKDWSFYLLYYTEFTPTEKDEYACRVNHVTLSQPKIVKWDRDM

SMILES	folding of the MR1-β2m cocomplex in solution [1]	IC50 (hMR1 protein) [µM]	total level of folded MR1 (intracellular staining with 8F2.F9) [2]	Tm50 (half-maximum melting temperature), Mean ± SD (soluble WT MR1) [°C]	CD69 upregulation on MAIT cells, ligand alone (MAIT cells from PBMCs)	MAIT cell proliferation [3]	Tm50 (half-maximum melting temperature), Mean ± SD (soluble WT MR1; listed as MR1-Alloxazine) [°C]	MR1^K43A at the cell surface [4]	reactivity to 5-OP-RU (CD69) ([5]; SKW-3-AF-7, in the presence of 1 nM 5-OP-RU)	reactivity to RL-7-Me (CD69) ([5]; SKW-3-AF-7, in the presence of 100 nM RL-7-Me)	reactivity of MR1 autoreactive, nucleobase-adduct reactive line (CD69) (SKW-3-DGB129 line)	reactivity to 5-OP-RU (CD69) (SKW-3-MAV36 line)	reactivity to 5-OP-RU (CD69) [6]	MR1 surface expression [7]	MR1 cell surface expression [8]
Cc1cc2nc3c(=O)[nH]c(=O)nc-3n(CC=O)c2cc1C [FMF, 10-formylmethylflavin]	facilitated the correct folding of the MR1-β2m cocomplex	53.6	increased the total level of folded MR1	–	–	–	–	–	–	–	–	–	–	–	–
CC(=O)C=Nc1c(NCC(O)C(O)C(O)CO)[nH]c(=O)[nH]c1=O [5-OP-RU, 5-(2-oxopropylideneamino)-6-D-ribitylaminouracil, reference compound]	–	–	–	58.14 ± 0.60	induced robust CD69 upregulation	significantly proliferated	–	–	–	–	–	–	–	–	–
O=c1nc2[nH]c3ccccc3nc-2c(=O)[nH]1 [Alloxazine, alloxazine]	facilitated the correct folding of the MR1-β2m cocomplex	13.4	increased the total level of folded MR1	–	–	–	50.73 ± 0.45	increased MR1^K43A at the cell surface	not altered	inhibited in a dose-dependent manner	inhibited	inhibited	inhibited	reduced MR1 surface expression	reduced MR1 cell surface
